This passage reports IC50 results from patent publication US20250129021A1, “SMALL MOLECULE PROTEIN SYNTHESIS MODULATORS” (Interdict Bio, Inc., priority 2023, published 2025).

Holding throughout (assay type): biochemical
Assay [1] deals with MYC. The experiment in a line: In vitro transcription-translation (IVTT) assay, MYC reporter. The conditions noted are these: HeLa S3 lysate, 2 hrs at 30° C. The gist of the method:
(§1)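 Reporter: mCherry, P2A, then 3×FLAG-target peptide-sfGFP fusion, IRES-initiated; HeLa S3 lysate IVTT; cpd dilutions 30 μM−0.1 μM half-log in 100% DMSO (dilution-plate conc); DNA added last; 2 h, 30° C; PBS quench.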

For assay [2], the system named is BCL-2. Nature of the assay: In vitro transcription-translation (IVTT) assay, BCL-2 reporter. The conditions noted are these: HeLa S3 lysate, sfGFP/mCherry ratio, 2 hrs at 30° C. The source says:
All reporter constructs have been cloned into the pT7CFE1-CHis plasmid (ThermoFisher #88860) using Gibson assembly procedures (NEB #E2611L). The parental pT7CFE1-CHis plasmid contains an EMCV IRES at the 5′UTR for translation initiation, a multiple-cloning site (MCS) for gene insertion, an optional C-terminal His-epitope tag, and polyA sequence in the 3′UTR to regulate mRNA stability. All reporters are designed to be inserted at the MCS to include a red fluorescent protein (mCherry), P2A self-cleaving peptide which releases the preceding mCherry protein product, and a fusion open reading frame containing a 3×FLAG epitope, a peptide sequence of interest (TEST), and green fluorescent protein (sfGFP).
Construct Plasmid Preparation: All plasmids are isolated from MACH1 cells (ThermoFisher) grown overnight in ampicillin-containing luria broth, and purified using ZymoPure Express Plasmid Midiprep Kit (Zymo Research). Constructs are sequenced verified and diluted to a working concentration of 110 ng/μL.
HeLa S3 Lysate Preparation: HeLa S3 cell pellets are acquired from Ipracell/Ipratech (Belgium) and shipped as 4 mL frozen cell pellets on dry ice for storage at −80° C. until use. The procedure for lysate preparation is as follows. Prepare 1× Lysis Buffer, cold and stored on ice:
(§2) Each preparation takes 8 cell pellets (4 ml packed volume each, approximately 1.0×10^9 cells per pellet). Thaw cell pellets from −80° C. on ice for 90 mins. Lay pellets horizontally on top of the ice and rotate every 30 mins to ensure even thawing. Once thawed, add 4 mL of cold lysis buffer to each pellet, and using a serological pipet, gently pipet up and down to break up clumps. Incubate resuspended cells in ice for an additional 30 mins (plunged into ice). During 30 min incubation, rinse and RNase-zap (Ambion) glass dounces (use loose pestle “A”), gently dry and place on ice until needed. Prepare RNase-free Eppendorf tubes for spinning and for batch storage. Add batch labels to 1.5-1.7 mL RNase-free microcentrifuge tubes (labeling scheme below). Each batch will have an extra 1.5-1.7 mL RNase-free microcentrifuge tube for 40 μL of lysate, label the top of this tube (labeling scheme below). After 30 min incubation, transfer all 8 mL of cell pellet to dounce. Cell lysis is complete after douncing 100 times. Aliquot cell lysis into 1.5-1.7 mL temporary-microcentrifuge tubes. Place tubes in centrifuge with “fins” out, and spin at 1,200×g for 5 mins. After the first spin use a 1 mL pipet to resuspend each tube and repeat spin. This acts as an additional lysis step, is more vigorous and increases lysate yield. During second spin get liquid N2 and a fresh conical tube on ice. After spin is complete, transfer supernatant (lysate) from microcentrifuge tubes into the 50 mL conical tube and keep on ice. Repeat steps 10-14 for all other cell pellets until completed. Once all cell lysate has been transferred to the 50 mL conical tube pipet to mix so the solution is homogenous. Transfer 1 mL of lysate into batch-labeled microcentrifuge tubes and flash freeze in liquid nitrogen. Be sure to pipet up and down to mix throughout transfer step. Place all tubes in the […] for long-term storage.
In vitro transcription-translation assay setup: Each assay includes a master mix containing lysate and shared components, a 96-well plate containing compound titrations for testing, a 96-well DNA plate with reporter constructs to be tested, 96-well skirted PCR plates, and 96-well flat-bottom, black, fluorescent assay plates. […]

The test system of assay [3] is MCL-1. Nature of the assay: In vitro transcription-translation (IVTT) assay, MCL-1 reporter. The conditions noted are these: HeLa S3 lysate, sfGFP/mCherry ratio, 2 hrs at 30° C. In a few lines:
as §1

Assay [4] concerns ALK. Nature of the assay: In vitro transcription-translation (IVTT) assay, ALK reporter. The conditions noted are these: HeLa S3 lysate, sfGFP/mCherry ratio, 2 hrs at 30° C. In a few lines:
as §1

Assay [5] deals with KRAS G12D. The experiment in a line: In vitro transcription-translation (IVTT) assay, KRAS G12D reporter. The conditions noted are these: HeLa S3 lysate, sfGFP/mCherry ratio, 2 hrs at 30° C. In a few lines: as §1
Assay [6] concerns CCND1. The experiment in a line: In vitro transcription-translation (IVTT) assay, CCND1 reporter. The conditions noted are these: HeLa S3 lysate, 2 hrs at 30° C. In a few lines: as §1
The subject of assay [7] is CCNE1. Nature of the assay: In vitro transcription-translation (IVTT) assay, CCNE1 reporter. The conditions noted are these: HeLa S3 lysate, 2 hrs at 30° C. How it is done:
as §2
In vitro transcription-translation assay setup: Each assay includes a master mix containing lysate and shared components, a 96-well plate containing compound titrations for testing, a 96-well DNA plate with reporter constructs to be tested, 96-well skirted PCR plates, and 96-well flat-bottom, black, fluorescent assay plates. Reaction materials setup: (A) Master mix—15 mL conical tube (3 mL of HeLa S3 Lysate described above; 0.6 mL of ThermoFisher Accessory Proteins (#88882); 1.2 ml of ThermoFisher Reaction Mix (#88882); 0.54 mL of nuclease-free Water); (B) 96-Well Master Mix+Compound Plate (Half-log dilutions (30 μM−0.1 μM) of 4 compounds of interest are prepared in 100% DMSO); 96-Well DNA Plate (Five DNA constructs are plated into single columns within the plate. Row 1 of the column contains nuclease free H2O, all other wells contain 110 ng/μL plasmid DNA). Reactions are started by mixing 155 μL of master mix and 3.5 μL of compound serial dilutions, then 9.1 μL of master mix+compound mixture is aliquoted across 5 96-well plates. Reactions begin with final addition of 2 μL of DNA for a 11.1 μL reaction volume in each well. The entire plate is sealed, and incubated for 2 hrs at 30° C. After 2 hrs, quench the assay using 45 μL of PBS, and transfer 50 μL to a flat-bottom black microplate Quantify the sfGFP and mCherry signals from each well on each plate, taking 3 reads of each plate, and perform data analysis below.
In vitro transcription-translation assay data analysis: Each plate is read three times in channels for both sfGFP and mCherry signals. The average signal across these 3 reads is then calculated for further analysis. Control wells containing no DNA reporter are subtracted from reporter wells in the same column to remove auto-fluorescence of the lysate. Then, the ratio of sfGFP/mCherry is calculated per well, and these ratios are averaged across the triplicate experiments on the same plate. Finally, the ratio of each titration concentration is normalized to the no drug control to create the normalized stalling metric. […]

The test system of assay [8] is CCNTB1. Nature of the assay: In vitro transcription-translation (IVTT) assay, CCNTB1 reporter. The conditions noted are these: HeLa S3 lysate, 2 hrs at 30° C. In a few lines: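 HeLa S3 lysate-based coupled transcription-translation reactions with reporter plasmids, compounds in half-log dilutions (30 μM−0.1 μM, in DMSO), 2 h at 30° C. sfGFP/mCherry ratio, corrected for no-DNA background, normalized to no-drug control and fitted for IC50.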

Turning to `COc1ccc(C[C@H]2NC[C@H](O)[C@H]2OC(=O)NCc2c[nH]cn2)cc1` [V187192, (2R,3S,4S)-4-hydroxy-2-[(4-methoxyphenyl)methyl]pyrrolidin-3-yl N-(1H-imidazol-4-ylmethyl)carbamate], the half-maximal inhibitory concentration (IC50) in assay [1] (sfGFP/mCherry ratio), in assay [2], in assay [3], in assay [4], in assay [5] and in assay [6] (sfGFP/mCherry ratio) was under 10 µM throughout.

With `COc1ccc(C[C@H]2NC[C@H](O)[C@H]2OC(=O)NCc2ccn[nH]2)cc1` [V187321, (2R,3S,4S)-4-hydroxy-2-[(4-methoxyphenyl)methyl]pyrrolidin-3-yl N-(2H-pyrazol-3-ylmethyl)carbamate; trifluoroacetic acid], the IC50 in assay [1] (sfGFP/mCherry ratio), in assay [2], in assay [3], in assay [4], in assay [5] and in assay [6] (sfGFP/mCherry ratio) was under 10 µM each time.

`COc1ccc(C[C@H]2NC[C@H](O)[C@H]2OC(=O)NCCc2cnc[nH]2)cc1` [V187593, (2R,3S,4S)-4-hydroxy-2-[(4-methoxyphenyl)methyl]pyrrolidin-3-yl N-[2-(3H-imidazol-4-yl)ethyl]carbamate]: the IC50 in assay [1] (sfGFP/mCherry ratio), in assay [2], in assay [3], in assay [4], in assay [5] and in assay [6] (sfGFP/mCherry ratio) was under 10 µM each time.

As to `COc1ccc(C[C@H]2NC[C@H](O)[C@H]2OC(=O)NCCc2cc[nH]n2)cc1` [V187698, (2R,3S,4S)-4-hydroxy-2-[(4-methoxyphenyl)methyl]pyrrolidin-3-yl N-[2-(1H-pyrazol-3-yl)ethyl]carbamate; trifluoroacetic acid], the IC50 in assay [1] (sfGFP/mCherry ratio), in assay [2], in assay [3], in assay [4], in assay [5] and in assay [6] (sfGFP/mCherry ratio) was under 10 µM throughout.

In the case of `COc1ccc(C[C@H]2NC[C@H](O)[C@H]2OC(=O)NCCc2ccncc2)cc1` [V187807, (2R,3S,4S)-4-hydroxy-2-[(4-methoxyphenyl)methyl]pyrrolidin-3-yl N-[2-(pyridin-4-yl)ethyl]carbamate], the IC50 in assay [1] (sfGFP/mCherry ratio), in assay [2], in assay [3], in assay [4] and in assay [5] was under 10 µM in each case.

For `COc1ccc(C[C@H]2NC[C@H](O)[C@H]2OC(=O)NCCNc2cc[nH]n2)cc1` [V187944, (2R,3S,4S)-4-hydroxy-2-[(4-methoxyphenyl)methyl]pyrrolidin-3-yl N-[2-(1H-pyrazol-3-ylamino)ethyl]carbamate], the IC50 is 10 to 20 µM in assay [1] (IVTT assay, MYC reporter, normalized sfGFP/mCherry ratio, half-log dilutions 30 μM-0.1 μM); 10 to 20 µM in assay [7]; 20 to 30 µM in assay [6] (IVTT); under 10 µM in assay [8].

With `COc1ccc(C[C@H]2NC[C@H](O)[C@H]2OC(=O)NCc2ccc(-c3ccccc3)cc2)cc1` [V187977, (2R,3S,4S)-4-hydroxy-2-[(4-methoxyphenyl)methyl]pyrrolidin-3-yl N-{[1,1′-biphenyl]-4-ylmethyl}carbamate], the IC50 in assay [1] (sfGFP/mCherry ratio), in assay [2], in assay [3] and in assay [6] (sfGFP/mCherry ratio) was over 30 µM in each case.

Take `COc1ccc(C[C@H]2NC[C@H](O)[C@H]2OC(=O)NCc2cccc(-c3ccccc3)c2)cc1` [V187982, (2R,3S,4S)-4-hydroxy-2-[(4-methoxyphenyl)methyl]pyrrolidin-3-yl N-{[1,1′-biphenyl]-3-ylmethyl}carbamate]: the IC50 in assay [1] (sfGFP/mCherry ratio), in assay [2], in assay [3] and in assay [6] (sfGFP/mCherry ratio) was over 30 µM each time.

With `COc1ccc(C[C@H]2NC[C@H](O)[C@H]2OC(=O)NCC(=O)O)cc1` [V188016], the IC50 in assay [1] (sfGFP/mCherry ratio), in assay [2], in assay [3] and in assay [6] (sfGFP/mCherry ratio) was over 30 µM throughout.

Consider `COc1ccc(C[C@H]2NC[C@H](O)[C@H]2OC(=O)NCC(=O)NCC(N)=O)cc1` [V188021, (2R,3S,4S)-4-hydroxy-2-[(4-methoxyphenyl)methyl]pyrrolidin-3-yl N-[(carbamoylmethylcarbamoyl)methyl]carbamate], for which the IC50 in assay [1] (sfGFP/mCherry ratio) was 20 to 30 µM; in assay [2], 20 to 30 µM; in assay [3], 10 to 20 µM; in assay [6] (sfGFP/mCherry ratio), 20 to 30 µM.

`COc1ccc(C[C@H]2NC[C@H](O)[C@H]2OC(=O)NCc2ccnc(OC)c2)cc1` [V188051, (2R,3S,4S)-4-hydroxy-2-[(4-methoxyphenyl)methyl]pyrrolidin-3-yl N-[(2-methoxypyridin-4-yl)methyl]carbamate]: the IC50 in assay [1] (sfGFP/mCherry ratio), in assay [2], in assay [3] and in assay [6] (sfGFP/mCherry ratio) was under 10 µM each time.

With `COc1ccc(C[C@H]2NC[C@H](O)[C@H]2OC(=O)NCCNc2ncnc3nc[nH]c23)cc1` [V188060, (2R,3S,4S)-4-hydroxy-2-[(4-methoxyphenyl)methyl]pyrrolidin-3-yl N-[2-(7H-purin-6-ylamino)ethyl]carbamate], the IC50 was 10 to 20 µM in assay [1] (sfGFP/mCherry ratio), over 30 µM in assay [2], over 30 µM in assay [3] and 20 to 30 µM in assay [6] (sfGFP/mCherry ratio).

Turning to `COc1ccc(C[C@H]2NC[C@H](O)[C@H]2OC(=O)NCC23CNC(C2)C3)cc1` [V188152, (2R,3S,4S)-4-hydroxy-2-[(4-methoxyphenyl)methyl]pyrrolidin-3-yl N-{2-azabicyclo[2.1.1]hexan-4-ylmethyl}carbamate], the IC50 is 10 to 20 µM in assay [7], over 30 µM in assay [6] (IVTT) and under 10 µM in assay [8].

The IC50 is the concentration at which inhibition is half-maximal.
